Assay results from PubChem BioAssay (NCI).
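All cell lines were grown in 96-well plates and treated with compound for 48 hours. GI50: concentration for 50% inhibition of growth. Definition used: TGI = concentration required for complete inhibition of growth.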

What was measured:
Assay in all cases: NCI-60 cell line screen, 48 h
[1] = tested on: SF-295 CNS
[2] = tested on: MDA-MB-435
[3] = tested on: SR leukemia
[4] = tested on: SW-620 colon
[5] = tested on: DU-145 prostate
[6] = tested on: HT29 colon
[7] = tested on: EKVX NSCLC
[8] = tested on: U251 CNS
[9] = tested on: HOP-62 NSCLC
[10] = tested on: ACHN renal
[11] = tested on: COLO 205 colon
[12] = tested on: SNB-19 CNS
[13] = tested on: MDA-N
[14] = tested on: OVCAR-5 ovarian
[15] = tested on: MALME-3M melanoma
[16] = tested on: NCI-H460 lung
[17] = tested on: HL-60(TB) leukemia
[18] = tested on: SF-268 CNS
[19] = tested on: RPMI-8226 leukemia
[20] = tested on: SNB-75 CNS
[21] = tested on: A498 renal
[22] = tested on: K-562 leukemia
[23] = tested on: HCT-116 colon
[24] = tested on: OVCAR-3 ovarian
[25] = tested on: MCF7 breast
[26] = tested on: MDA-MB-231 breast
[27] = tested on: NCI/ADR-RES ovarian
[28] = tested on: HOP-92 NSCLC
[29] = tested on: IGROV1 ovarian
[30] = tested on: T-47D breast
[31] = tested on: OVCAR-8 ovarian
[32] = tested on: SK-MEL-5 melanoma
[33] = tested on: KM12 colon
[34] = tested on: MOLT-4 leukemia
[35] = tested on: HCC-2998 colon
[36] = tested on: A549 NSCLC
[37] = tested on: M14 melanoma
[38] = tested on: SF-539 CNS
[39] = tested on: LOX IMVI melanoma
[40] = tested on: CCRF-CEM leukemia
[41] = tested on: NCI-H522 lung
[42] = tested on: SK-OV-3 ovarian
[43] = tested on: CAKI-1 renal
[44] = tested on: HCT-15 colon
[45] = tested on: SN12C renal
[46] = tested on: TK-10 renal

Structure (SMILES): COc1cc2cc(C(=O)N3C[C@H](CCl)c4c3cc(N)c3ccccc43)[nH]c2c(OC)c1OC
- GI50 [1]: 5 nM
- TGI [1]: > 50000 nM
- TGI [2]: 137 nM
- GI50 [3]: 5 nM
- TGI [3]: > 50000 nM
- GI50 [4]: 5 nM
- TGI [4]: > 50000 nM
- GI50 [5]: < 5 nM
- TGI [5]: < 5 nM
- GI50 [6]: 5 nM
- TGI [6]: 615 nM
- TGI [7]: 46.2 nM
- GI50 [8]: 5 nM
- TGI [8]: > 50000 nM
- GI50 [9]: 5 nM
- TGI [9]: 112 nM
- TGI [10]: < 5 nM
- GI50 [11]: < 5 nM
- TGI [11]: < 5 nM
- GI50 [12]: 25.2 nM
- TGI [12]: 1240 nM
- GI50 [13]: < 1 nM
- TGI [13]: 9030 nM
- GI50 [14]: 5 nM
- TGI [14]: 552 nM
- TGI [15]: 10.3 nM
- GI50 [16]: 5 nM
- TGI [16]: 6.7 nM
- GI50 [17]: 17.1 nM
- TGI [17]: 164 nM
- GI50 [18]: 5 nM
- TGI [18]: 1740 nM
- GI50 [19]: 5 nM
- TGI [19]: > 50000 nM
- GI50 [20]: 12.3 nM
- TGI [20]: 45.8 nM
- TGI [21]: 31.8 nM
- GI50 [22]: 5 nM
- TGI [22]: > 50000 nM
- GI50 [23]: 5 nM
- TGI [23]: 600 nM
- GI50 [24]: 5 nM
- TGI [24]: 936 nM
- GI50 [25]: 5 nM
- TGI [25]: 13000 nM
- GI50 [26]: 5 nM
- TGI [26]: 25.4 nM
- TGI [27]: 7690 nM
- TGI [28]: > 50000 nM
- GI50 [29]: 5 nM
- TGI [29]: 393 nM
- TGI [30]: < 5 nM
- TGI [31]: > 50000 nM
- TGI [32]: < 5 nM
- GI50 [33]: 11.5 nM
- TGI [33]: 92.2 nM
- TGI [34]: 246 nM
- GI50 [35]: < 5 nM
- TGI [35]: < 5 nM
- TGI [36]: > 50000 nM
- GI50 [37]: 5 nM
- TGI [37]: 13.7 nM
- TGI [38]: 3300 nM
- GI50 [39]: 5 nM
- TGI [39]: 58.1 nM
- GI50 [40]: 5 nM
- TGI [40]: > 50000 nM
- GI50 [41]: < 5 nM
- TGI [41]: < 5 nM
- GI50 [42]: 39.8 nM
- TGI [42]: 819 nM
- TGI [43]: < 5 nM
- TGI [44]: > 50000 nM
- GI50 [45]: 6.98 nM
- TGI [45]: 58.2 nM
- TGI [46]: 10300 nM
